Test results reported in patent US6355799B1, “Substituted benzene compounds, process for their preparation, and herbicidal and defoliant compositions containing them” (ISK Americas Incorporated, priority 1997, dated 2002).

Legend:
Format in all cases: in vivo
[1] = tested on: redroot pigweed (Amaranthus retroflexus, AMARE); assay: Pre-emerge test, greenhouse herbicide activity screening; settings: rating scale 0-100, 14 days after application
Outline: (§1)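 Sandy loam pots; pre-emerge: sown 1 d pre-spray, surface-watered after, then bottom-watered. Post-emerge: sown 8–21 d before, 2–3 leaf stage, + 0.25% v/v NIS, bottom-watered. Acetone, 187 l/ha track spray, 15–1000 g ai/ha. 0–100 injury score, day 14.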

[2] = tested on: upland rice (Oryza sp., var. Tebonnet, RICE); assay: Post-emerge test, crop safety; settings: rating scale 0-100 (0 no damage, 100 complete death), 14 days after application
Outline: (§2)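 Rating: 0–100 visual injury, 14 DAA. Application: acetone, 187 l/ha, 15–1000 g ai/ha, flat-fan track sprayer with nozzle 40–45 cm above soil or canopy. Post-emerge runs used 0.25% v/v surfactant on 2–3 leaf plants.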

[3] = tested on: field corn (Zea mays L., var. Dekalb 535, CORN); assay: Post-emerge test, crop safety; settings: rating scale 0-100 (0 no damage, 100 complete death), 14 days after application
Outline: as §2

[4] = tested on: sicklepod (Cassia obtusifolia, CASOB); assay: Pre-emerge test, greenhouse herbicide activity screening; settings: rating scale 0-100, 14 days after application
Outline: (§3)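 Compounds in acetone were track-sprayed at 15–1000 g ai/ha: pre-emergence onto soil sown the previous day, then top-watered to incorporate and later bottom-watered; post-emergence onto 2–3 leaf plants with 0.25% v/v surfactant, bottom-watered only. Ratings on a 0–100 phytotoxicity scale were taken at day 14.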

[5] = tested on: velvetleaf (Abutilon theophrasti, ABUTH); assay: as above; settings: rating scale 0-100, 14 days after application
Outline: as §3

[6] = tested on: green foxtail (Setaria viridis, SETVI); assay: as above; settings: rating scale 0-100, 14 days after application
Outline: as §3

[7] = tested on: johnsongrass (Sorghum halepense, SORHA); assay: as above; settings: rating scale 0-100, 14 days after application
Outline: as §3

[8] = tested on: barnyardgrass (Echinochloa crus-galli, ECHCG); assay: as above; settings: rating scale 0-100, 14 days after application
Outline: as §3

[9] = tested on: ivyleaf morningglory (Ipomoea hederacea, IPOHE); assay: as above; settings: rating scale 0-100, 14 days after application
Outline: as §3

[10] = tested on: large crabgrass (Digitaria sanguinalis, DIGSA); assay: as above; settings: rating scale 0-100, 14 days after application
Outline: as §3

[11] = tested on: lambsquarters (Chenopodium album, CHEAL); assay: as above; settings: rating scale 0-100, 14 days after application
Outline: as §3

[12] = tested on: sicklepod (Cassia obtusifolia, CASOB); assay: Post-emerge test, greenhouse herbicide activity screening; settings: rating scale 0-100 (0 no damage, 100 complete death), 14 days after application
Outline: as §3

[13] = tested on: velvetleaf (Abutilon theophrasti, ABUTH); assay: as above; settings: rating scale 0-100 (0 no damage, 100 complete death), 14 days after application
Outline: as §3

[14] = tested on: redroot pigweed (Amaranthus retroflexus, AMARE); assay: as above; settings: rating scale 0-100 (0 no damage, 100 complete death), 14 days after application
Outline: as §3

[15] = tested on: common ragweed (Ambrosia artemisizfolia L., AMBEL); assay: as above; settings: rating scale 0-100 (0 no damage, 100 complete death), 14 days after application
Outline: as §3

[16] = tested on: green foxtail (Setaria viridis, SETVI); assay: as above; settings: rating scale 0-100 (0 no damage, 100 complete death), 14 days after application
Outline: as §3

[17] = tested on: johnsongrass (Sorghum halepense, SORHA); assay: as above; settings: rating scale 0-100 (0 no damage, 100 complete death), 14 days after application
Outline: as §3

[18] = tested on: barnyardgrass (Echinochloa crus-galli, ECHCG); assay: as above; settings: rating scale 0-100 (0 no damage, 100 complete death), 14 days after application
Outline: as §3

[19] = tested on: ivyleaf morningglory (Ipomoea hederacea, IPOHE); assay: as above; settings: rating scale 0-100 (0 no damage, 100 complete death), 14 days after application
Outline: as §3

[20] = tested on: large crabgrass (Digitaria sanguinalis, DIGSA); assay: as above; settings: rating scale 0-100 (0 no damage, 100 complete death), 14 days after application
Outline: as §3

[21] = tested on: lambsquarters (Chenopodium album, CHEAL); assay: as above; settings: rating scale 0-100 (0 no damage, 100 complete death), 14 days after application
Outline: as §3

[22] = tested on: upland rice (Oryza sp., var. Tebonnet, RICE); assay: Pre-emerge test, crop safety; settings: rating scale 0-100, 14 days after application
Outline: as §1

[23] = tested on: field corn (Zea mays L., var. Dekalb 535, CORN); assay: Pre-emerge test, crop safety; settings: rating scale 0-100, 14 days after application
Outline: as §1

Q: For `CCOCCOC(=O)C(Cl)Cc1c(OC)c(Cl)cc(F)c1-n1c(=O)cc(C(F)(F)F)n(C)c1=O` (stereo not shown) [14-26], which “Pre-emerge herbicidal activity, phytotoxicity rating AMARE” value ([1]; 63 g ai/ha) is on record?
A: 100

Q: What about the “Pre-emerge herbicidal activity, phytotoxicity rating AMARE” value ([1]; 250 g ai/ha) of the same compound?
A: 100

Q: What about the “Post-emerge phytotoxicity rating RICE (crop damage)” value ([2]; Rate 63 g ai/ha) of the same compound?
A: 10

Q: What about the “Post-emerge phytotoxicity rating RICE (crop damage)” value ([2]; Rate 250 g ai/ha) of the same compound?
A: 10

Q: What about the “Post-emerge phytotoxicity rating CORN (crop damage)” value ([3]; Rate 63 g ai/ha) of the same compound?
A: 40

Q: What about the “Post-emerge phytotoxicity rating CORN (crop damage)” value ([3]; Rate 250 g ai/ha) of the same compound?
A: 100

Q: And the “Pre-emerge herbicidal activity, phytotoxicity rating CASOB” value ([4]; 63 g ai/ha)?
A: 0

Q: What about the “Pre-emerge herbicidal activity, phytotoxicity rating CASOB” value ([4]; 250 g ai/ha) of the same compound?
A: 20

Q: What about the “Pre-emerge herbicidal activity, phytotoxicity rating ABUTH” value ([5]; 63 g ai/ha) of the same compound?
A: 80

Q: And the “Pre-emerge herbicidal activity, phytotoxicity rating ABUTH” value ([5]; 250 g ai/ha)?
A: 100

Q: What about the “Pre-emerge herbicidal activity, phytotoxicity rating SETVI” value ([6]; 63 g ai/ha) of the same compound?
A: 0

Q: And the “Pre-emerge herbicidal activity, phytotoxicity rating SETVI” value ([6]; 250 g ai/ha)?
A: 99

Q: What about the “Pre-emerge herbicidal activity, phytotoxicity rating SORHA” value ([7]; 63 g ai/ha) of the same compound?
A: 0

Q: And the “Pre-emerge herbicidal activity, phytotoxicity rating SORHA” value ([7]; 250 g ai/ha)?
A: 70

Q: And the “Pre-emerge herbicidal activity, phytotoxicity rating ECHCG” value ([8]; 63 g ai/ha)?
A: 0

Q: What about the “Pre-emerge herbicidal activity, phytotoxicity rating ECHCG” value ([8]; 250 g ai/ha) of the same compound?
A: 95

Q: What about the “Pre-emerge herbicidal activity, phytotoxicity rating IPOHE” value ([9]; 63 g ai/ha) of the same compound?
A: 0

Q: And the “Pre-emerge herbicidal activity, phytotoxicity rating IPOHE” value ([9]; 250 g ai/ha)?
A: 0

Q: What about the “Pre-emerge herbicidal activity, phytotoxicity rating DIGSA” value ([10]; 63 g ai/ha) of the same compound?
A: 50

Q: And the “Pre-emerge herbicidal activity, phytotoxicity rating DIGSA” value ([10]; 250 g ai/ha)?
A: 95

Q: What about the “Pre-emerge herbicidal activity, phytotoxicity rating CHEAL” value ([11]; 63 g ai/ha) of the same compound?
A: 70

Q: What about the “Pre-emerge herbicidal activity, phytotoxicity rating CHEAL” value ([11]; 250 g ai/ha) of the same compound?
A: 100

Q: And the “Post-emerge Herbicidal Activity, phytotoxicity rating CASOB” value ([12]; Rate 63 g ai/ha)?
A: 50

Q: And the “Post-emerge Herbicidal Activity, phytotoxicity rating CASOB” value ([12]; Rate 250 g ai/ha)?
A: 90

Q: What about the “Post-emerge Herbicidal Activity, phytotoxicity rating ABUTH” value ([13]; Rate 63 g ai/ha) of the same compound?
A: 70

Q: And the “Post-emerge Herbicidal Activity, phytotoxicity rating ABUTH” value ([13]; Rate 250 g ai/ha)?
A: 100

Q: And the “Post-emerge Herbicidal Activity, phytotoxicity rating AMARE” value ([14]; Rate 63 g ai/ha)?
A: 90

Q: What about the “Post-emerge Herbicidal Activity, phytotoxicity rating AMARE” value ([14]; Rate 250 g ai/ha) of the same compound?
A: 100

Q: And the “Post-emerge Herbicidal Activity, phytotoxicity rating AMBEL” value ([15]; Rate 63 g ai/ha)?
A: 100

Q: And the “Post-emerge Herbicidal Activity, phytotoxicity rating AMBEL” value ([15]; Rate 250 g ai/ha)?
A: 100

Q: And the “Post-emerge Herbicidal Activity, phytotoxicity rating SETVI” value ([16]; Rate 63 g ai/ha)?
A: 0

Q: And the “Post-emerge Herbicidal Activity, phytotoxicity rating SETVI” value ([16]; Rate 250 g ai/ha)?
A: 0

Q: What about the “Post-emerge Herbicidal Activity, phytotoxicity rating SORHA” value ([17]; Rate 63 g ai/ha) of the same compound?
A: 30

Q: And the “Post-emerge Herbicidal Activity, phytotoxicity rating SORHA” value ([17]; Rate 250 g ai/ha)?
A: 70

Q: And the “Post-emerge Herbicidal Activity, phytotoxicity rating ECHCG” value ([18]; Rate 63 g ai/ha)?
A: 100

Q: And the “Post-emerge Herbicidal Activity, phytotoxicity rating ECHCG” value ([18]; Rate 250 g ai/ha)?
A: 100

Q: What about the “Post-emerge Herbicidal Activity, phytotoxicity rating IPOHE” value ([19]; Rate 63 g ai/ha) of the same compound?
A: 20

Q: And the “Post-emerge Herbicidal Activity, phytotoxicity rating IPOHE” value ([19]; Rate 250 g ai/ha)?
A: 100

Q: What about the “Post-emerge Herbicidal Activity, phytotoxicity rating DIGSA” value ([20]; Rate 63 g ai/ha) of the same compound?
A: 100

Q: What about the “Post-emerge Herbicidal Activity, phytotoxicity rating DIGSA” value ([20]; Rate 250 g ai/ha) of the same compound?
A: 100

Q: And the “Post-emerge Herbicidal Activity, phytotoxicity rating CHEAL” value ([21]; Rate 63 g ai/ha)?
A: 60

Q: And the “Post-emerge Herbicidal Activity, phytotoxicity rating CHEAL” value ([21]; Rate 250 g ai/ha)?
A: 100

Q: And the “Pre-emerge phytotoxicity rating, crop damage RICE” value ([22]; 63 g ai/ha)?
A: 0

Q: And the “Pre-emerge phytotoxicity rating, crop damage RICE” value ([22]; 250 g ai/ha)?
A: 80

Q: What about the “Pre-emerge phytotoxicity rating, crop damage CORN” value ([23]; 63 g ai/ha) of the same compound?
A: 0

Q: What about the “Pre-emerge phytotoxicity rating, crop damage CORN” value ([23]; 250 g ai/ha) of the same compound?
A: 50
